The record followed here is article PMC2930754 (Chemical communications (Cambridge, England), 2010).

One test deals with tubulin. In words: Promotion of in vitro tubulin polymerization. Format: biochemical. Particulars: in vitro tubulin assembly.
Test [1] deals with A2780 ovarian cancer cells. In words: Antiproliferative activity to A2780 ovarian cancer cells. Particulars: Homo sapiens, A2780, read-out: IC50 A2780 (antiproliferative activity). Format: cell-based.

Each structure is given as a SMILES string.

Consider `C/C1=C/C[C@@H](/C(C)=C/c2csc(C)n2)OC(=O)C[C@H](O)C(C)(C)C(=O)[C@H](C)[C@@H](O)[C@@H](C)CCC1` [Compound 4, epothilone D], for which, in the test with tubulin, the “ED50, Tb polym. (promotion of tubulin polymerization)” value came to 440 ± 20 nM. Moreover, the half-maximal inhibitory concentration (IC50) (in general, the concentration that inhibits the measured activity by half) in test [1] stood at 6.8 ± 1.7 nM. For the compound `C/C(=C\c1csc(C)n1)[C@@H]1C[C@@H]2O[C@]2(C)CCC[C@H](C)[C@H](O)[C@@H](C)C(=O)C(C)(C)[C@@H](O)CC(=O)O1` [Compound 2, epothilone B], the IC50 in test [1] was 1.9 ± 0.2 nM.
